US20250127778A1, “CANCER IMMUNOTHERAPY COMPOSITION CONTAINING INTERACTION INHIBITOR OF STING AND TRIM29 AS ACTIVE INGREDIENT” (SPARK BIOPHARMA, INC, priority 2021, published 2025)

Assays:
STING = STING (Homo sapiens, UniProt Q86WV6); experiment: Western blotting of STING under co-treatment with MG132, actinomycin D or cycloheximide; assay type: cell-based
Text: In addition, in order to cross-validate the results of the ELISA experiment, it was confirmed whether the STING increasing effect of the compound of Formula 1 was disappeared when ubiquitinated proteins were prevented from being degraded by treatment with MG132.
In addition, in order to exclude the possibility that the increase in STING expression by the compound of Formula 1 can occur through cellular mechanisms other than ubiquitin-mediated reactions, the transcription inhibitor actinomycin D (ActD) and the ribosome translation inhibitor cycloheximide (CHX) were co-treated with the compound of Formula 1, and whether the STING increase effect was still maintained was confirmed by using the Western blotting method.

[1] = tested on: tumor-infiltrating leukocytes (TILs); experiment: Flow cytometry of tumor-infiltrating immune cells; assay type: in vivo, mouse; settings: combination with cGAMP, FIG. 26
Description: The tumors were extracted after the mice were euthanized with carbon dioxide. The tumor tissues were divided into small pieces with a razor blade, treated with the DMEM solution including 2% horse serum, 0.5 mg/ml of collagenase D, and 40 μg/mL of DNase I for one hour at 37° C., and permeated through a 40-μm filter, thereby being separated into individual cells. Tumor-infiltrating leukocytes (TILs) were separated from the separated cells by percoll concentration-gradient centrifugation, and red blood cells were removed by treatment with red blood cell lysis solution. The obtained cells were redistributed in the FACS solution described above, and FcγRII/III receptors of individual immune cells were neutralized by treatment with the anti-mouse CD16/CD32 Abs (clone 2.4G2) antibody at 4° C. for 10 minutes. The treatment with primary antibodies for individual cell differentiation were performed at 4° C. for 30 minutes. The treated cells were redistributed into a PBS solution after centrifugation and then further centrifuged to remove the supernatant. The cells were fixed by the treatment with 4% paraformaldehyde (PFA) solution at room temperature for 10 minutes, treated with Triton solution (PBS solution including 0.1% BSA and 0.5% Triton-X-100), and centrifuged, and then the supernatant was removed. Cytokine (IFNγ(XMG1.2)-APC, Perforin(S16009A)-PE, granzyme B(QA16A02)-FITC, Biolegend) primary antibodies were treated at room temperature for two hours. Finally, the Triton solution was added, centrifugation was performed, the supernatant was removed, the cells were redistributed into 200 μL of the Triton solution and analyzed by using a FACSCalibur device from BD Bioscience, and the results were quantitatively analyzed by using the FlowJo program from Tree Star, Inc.

TRIM29 = molecular target: T1, TRIM29 (Homo sapiens, UniProt Q14134); experiment: ITDRF in A431 cells, TRIM29; assay type: binding; settings: FIG. 12
T1 construct: endogenous in cells; host or cells: A431
T1 sequence (Q14134 1-588): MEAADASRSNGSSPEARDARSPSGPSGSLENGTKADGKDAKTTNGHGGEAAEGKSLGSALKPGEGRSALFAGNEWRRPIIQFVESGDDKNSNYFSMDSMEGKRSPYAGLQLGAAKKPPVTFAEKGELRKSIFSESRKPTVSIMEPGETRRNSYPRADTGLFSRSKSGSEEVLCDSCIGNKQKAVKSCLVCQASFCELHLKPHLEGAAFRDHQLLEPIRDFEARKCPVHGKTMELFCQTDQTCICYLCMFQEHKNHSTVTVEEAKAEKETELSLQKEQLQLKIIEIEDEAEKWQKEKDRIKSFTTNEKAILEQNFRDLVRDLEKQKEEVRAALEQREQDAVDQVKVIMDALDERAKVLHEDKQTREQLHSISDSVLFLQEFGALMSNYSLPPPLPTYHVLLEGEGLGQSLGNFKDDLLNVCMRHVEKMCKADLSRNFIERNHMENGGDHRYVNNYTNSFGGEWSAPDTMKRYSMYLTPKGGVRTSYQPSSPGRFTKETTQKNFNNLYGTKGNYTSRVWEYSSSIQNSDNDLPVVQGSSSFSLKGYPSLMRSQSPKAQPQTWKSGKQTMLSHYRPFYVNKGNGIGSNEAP
Text: It was verified whether the oxopiperazine derivative of the present invention was bound to STING among STING and TRIM29 to inhibit interaction thereof, based on the compound of Formula 1, by the cellular thermal shift assay (CETSA) and the isothermal dose response fingerprint (ITDRF) which were major technologies for verifying the interaction between small molecule compounds and target proteins. (D. M. Molinaetal., Science 2013, 341, 84-87.)
To verify the target of the compound of Formula 1 using the CETSA technique, the human A431 cell lines and mouse Raw264.7 cell lines were seeded on a 100-mm or 150-mm culture dish and cultured for one day. […] Afterwards, centrifugation was performed at 20000 g for 20 minutes at 4° C., the supernatant was transferred to a new container, and each concentration was measured by using the Micro BCA™ protein assay kit (ThermoFisher) according to the protocol of the manufacturer. The concentration of each sample was equally adjusted by using the RIPA lysis buffer, the 5× SDS-PAGE loading buffer (Biosesang) was added according to the ratio of the manufacturer, and the resultant was treated at 95° C. for 5 minutes and analyzed by using the Western blotting method described above.

STING, sequence (Q86WV6 whole entry H232R, species assumed): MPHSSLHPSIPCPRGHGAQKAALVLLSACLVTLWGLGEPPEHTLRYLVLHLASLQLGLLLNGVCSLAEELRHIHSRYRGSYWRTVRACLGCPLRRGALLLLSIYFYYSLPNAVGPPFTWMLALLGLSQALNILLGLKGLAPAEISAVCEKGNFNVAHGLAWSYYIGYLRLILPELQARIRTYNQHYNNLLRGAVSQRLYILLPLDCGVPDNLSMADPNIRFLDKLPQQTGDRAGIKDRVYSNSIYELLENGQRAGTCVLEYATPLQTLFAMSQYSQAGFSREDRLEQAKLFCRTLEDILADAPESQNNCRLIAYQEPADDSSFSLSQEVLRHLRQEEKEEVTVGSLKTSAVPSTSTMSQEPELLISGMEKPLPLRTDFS

`COc1ccc(CC2=CN(c3ccc(C(=O)NC[C@H]4CCCO4)cc3[N+](=O)[O-])[C@H](C(C)C)C(=O)N2Cc2ccc(O)cc2)cc1` [Formula 1, 4-((R)-4-(4-hydroxybenzyl)-2-isopropyl-5-(4-methoxybenzyl)-3-oxo-3,4-dihydropyrazin-1 (2H)-yl)-3-nitro-N-(((R)-tetrahydrofuran-2-yl)methyl)benzamide] was tested, and the “intracellular amount of STING under transcription and translation inhibition” value (STING; co-treated with actinomycin D (ActD) and cycloheximide (CHX), Western blotting, FIG. 10) was “still increased the intracellular amount of STING”, the “STING amount under MG132 treatment” value (STING; co-treated with proteasome inhibitor MG132, Western blotting, FIG. 9) was “STING was not increased” and the “infiltration of total T cells and cytotoxic T cells into the tumor” value ([1]; ratio of CD45+ cells) was “increased”. For the same compound, the “activity of infiltrated cytotoxic T cells (TNF-α, granzyme B, Perforin)” value [1] was “increased”, the “total ratio of myeloid-derived suppressor cells (MDSC)” value [1] was “decreased” and the “ITDRF effect on TRIM29” value (TRIM29) was “without affecting TRIM29”.
